Data as given in patent US20120059005A1, “COMBINATION OF (A) A PHOSPHOINOSITIDE 3-KINASE INHIBITOR AND (B) AN ANTIDIABETIC COMPOUND FOR USE IN THE TREATMENT OF PROLIFERATIVE DISEASES” (NOVARTIS AG, priority 2009, published 2012).
“Also recorded” adds a separate entry of the source. Where two headings read alike, the source gives them in different places.

Tests used:
[1] = system: phosphorylated and total AMPK, MAPK, EGFR, HER and S6 ribosomal protein; assay: Western blot of phosphorylated and total signalling proteins in breast cancer cells; type: cell-based
Method: (§1) MCF-7(HER2), SK-BR-3, MDA-MB-231 and MDA-MB-468 breast cancer cells are treated with different doses of 2-Methyl-2-[4-(3-methyl-2-oxo-8-quinolin-3-yl-2, 3-dihydro-imidazo[4,5-c]quinolin-1-yl)-phenyl]-propionitrile, also known as COMPOUND A, metformin or both agents in combination. Levels of phosphorylated and total AMPK, MAPK, EGFR, HER and S6 ribosomal protein are evaluated by western blot. Cell proliferation analyses are performed in triplicates using the WST-1 and crystal violet colorimetric assays.

[2] = system: A549 non-small cell lung tumors; assay: A549 xenograft 20-day tumor growth inhibition assay; type: in vivo, nude mice
Method: A549 human non-small cell lung cancer (NSCLC) cells are treated with different doses of the 2-Methyl-2-[4-(3-methyl-2-oxo-8-quinolin-3-yl-2,3-dihydro-imidazo[4, 5-c]quinolin-1-yl)-phenyl]-propionitrile monotosylate salt (also known as COMPOUND A) or 5-(2,6-di-morpholin-4-yl-pyrimidin-4-yl)-4-trifluoromethyl-pyridin-2-ylamine hydrochloride salt (also known as COMPOUND C), a single dose of metformin or both agents in combination. The A549 human NSCLC cells (ATCC-CCL-185, available from American Type Culture Collection, Rockville, Md. US) display characteristics of type II alveolar epithelial cells (Lieber et al, Int, J, Cancer 17(1): 62-70 [1976]), The A549 NSCLC cells are homozygous for mutations in the tumor suppressor genes, CDKN2A and STK11 (also called LKB1), and in KRAS. (Wellcome Trust Sanger Institute, Catalogue of Somatic Mutations in Cancer, Cosmic ID No, 905949, available at website http://www.sanger.ac.uk/peri/genetics/CGP/core_line_viewer?action=sample&name=A549.)
A549 tumor cells are grown in Kaighn's modified Ham's F12 medium containing 100 units/mL penicillin G sodium, 100 μg/mL streptomycin sulfate, 25 μg/mL gentamicin, […], 2 mM glutamine, and 1 mM sodium pyruvate. The cells are cultured in tissue culture flasks in a humidified incubator at 37° C., in an atmosphere of 5% CO2 and 95% air. The cells are harvested for injection into 9-week old female nu/nu (nude) mice (Harlan Laboratories, Indianapolis, Ind.) by detaching the monolayers with 2X trypsin and resuspending at 5×10^7cells/mL in cold phosphate-buffered saline containing 50% Matrigel.
(§2) 0.2 mL of A549 cell suspension (1×10^7 cells) is injected subcutaneously in the right flank of 9-week old female flu/flu (nude) mice (Harlan Laboratories, Indianapolis, Ind.) having a body weight (BW) range of 19.9-27.3 g on Day 1 of the study, Tumors are callipered in two dimensions to monitor their growth as their mean volume approached 150-220 mm^3, Twenty-two days after implantation, the mice are sorted into 11 groups of eight or nine mice having individual tumor sizes of 108-221 mm^3. Tumor volume in mm^3 is determined using the formula [(width)^2×(length)][…], where width width of the tumor in mm and length=length of the tumor in mm. Tumor weight can be estimated with the assumption that 1 mg is equivalent to 1 mm^3 of tumor volume.
(§3) The 11 groups of nude mice are treated as follows. One group of nine mice serves as Controls (C or Control) for all analyses and is administered intraperitoneally (i,p,) 50 mM sodium acetate at pH 4 (Vehicle 1) and then administered by oral gavage (p.o.) a composition comprising 10% N-methylpyrrolidone: 90% polyethylene glycol 300 (PEG300) (Vehicle 2). […] Metformin is dissolved in 50 mM sodium acetate at pH 4 for dosing,
(§4) Compound A and Compound C are stored at −20° C. protected from light. Stock solutions (10X) in 100% N-methylpyrrolidone (NMP) are prepared every five days, aliquotted, and stored in the dark at room temperature. On each treatment day, stock solution aliquots are diluted with polyethylene glycol (PEG300) to provide the formulated drug (Compound A or Compound C) in 10% NMP: 90% PEG300. Dosing solutions are protected from light, and the formulated drug is administered within 1 hour after preparation.
(§5) For combination therapies, Compound A or Compound C are administered by oral gavage (p.o.) within 30 minutes after the intraperitoneal (i.p.) administration of metformin , except on Day 20 when Compound A or Compound C is given immediately after metformin.
(§6) Paclitaxel (Natural Pharmaceuticals, Inc., Beverly, Mass., USA) is administered by bolus tail-vein injections (i v) once daily on alternate days for five doses. Paclitaxel is dissolved in 50% ethanol and 50% Cremophor® EL to prepare a 10X stock solution stored at room temperature. On each day of dosing, an aliquot of the paclitaxel stock solution is diluted with 5% dextrose in water to yield a dosing solution containing 5% ethanol and 5% Cremophor®EL.

[3] = Method: as §2, §3, §4, §5, §6
In all groups, the dosing volume of 10 mL/kg (0.2 mL/ 20 g mouse) is scaled to the weight of each animal as determined on the day of dosing, except on weekends when the previous BW is carried forward.

[4] = system: MCF-7(HER2), SK-BR-3, MDA-MB-231 and MDA-MB-468 breast cancer cells; conditions: different doses, SK-BR-3, MDA-MB-231, MDA-MB-468, triplicates
Method: as §1

[5] = Compound A 41.1 mg/kg p.o., 1x daily, Day 20
[6] = Compound A 68.5 mg/kg p.o., 1x daily, Day 20
[7] = Compound C 32.7 mg/kg p.o., 1x daily, Day 20
[8] = Compound C 54.4 mg/kg p.o., 1x daily, Day 20
[9] = breast cancer cells, listed as metformin
[10] = Metformin 192.3 mg/kg i.p., 1x daily, Day 20
[11] = Paclitaxel 30 mg/kg i.v., 1x on alternate days for 5 doses, Day 20

With `Cn1c(=O)n(-c2ccc(C(C)(C)C#N)cc2)c2c3cc(-c4cnc5ccccc5c4)ccc3ncc21` [Compound A, 2-Methyl-2-[4-(3-methyl-2-oxo-8-quinolin-3-yl-2,3-dihydro-imidazo[4,5-c]quinolin-1-yl)-phenyl]-propionitrile] the “levels of p-S6 ribosomal protein” value ([1]; breast cancer cells) was “potently decreases”, the p-AKT ([1]; breast cancer cells) was “potently decreases” and the “p-MAPK / MAPK phosphorylation” value ([1]; breast cancer cells) was “increases MAPK phosphorylation”. The “Mean Tumor Vol. Change” value [2, 5] was 58 mm^3, the Regression [2, 5] was “None” and the T/C [2, 5] was 18% (ns). For the same molecule, the “Mean Tumor Vol. Change” value [2, 6] was −51 mm^3, the Regression [2, 6] was 3 Partial and the T/T0 [2, 6] was −31% (T/T0,. For the same molecule, the Dead/Total ([3]; female, nu/nu (nude), mouse, in vivo, po, 41.1 mg/kg) was 0/8, the Dead/Total ([3]; female, nu/nu (nude), mouse, in vivo, po, 68.5 mg/kg) was 0/9 and the “Mean Body Weight Change” value ([3]; mouse, in vivo, po, 68.5 mg/kg) was −0.8%, Day 4.

With `Nc1cc(C(F)(F)F)c(-c2cc(N3CCOCC3)nc(N3CCOCC3)n2)cn1` [Compound C, 5-(2,6-di-morpholin-4-yl-pyrimidin-4-yl)-4-trifluoromethyl-pyridin-2-ylamine] the “Mean Tumor Vol. Change” value [2, 7] was 63 mm^3, the Regression [2, 7] was “None” and the T/C [2, 7] was 20% (ns). The “Mean Tumor Vol. Change” value [2, 8] was −80 mm^3, the Regression [2, 8] was “None” and the T/T0 [2, 8] was −48% (T/T0,.

With `CN(C)C(=N)N=C(N)N` [Metformin, dimethyldiguanide, reference compound] the “AMPK activation (p-AMPK)” value ([1]; breast cancer cells) was “activates AMPK”, the “levels of p-S6 ribosomal protein” value ([1]; breast cancer cells) was “decreasing the levels of p-S6 ribosomal protein” and the “receptor tyrosine kinase (EGFR and HER2) expression” value ([1]; breast cancer cells) was “reduced receptor tyrosine kinase (EGFR and HER2) expression”. For the same molecule, the “AMPK activation (p-AMPK)” value [1, 9] was “activates p-AMPK”, the “p-MAPK / MAPK phosphorylation” value [1, 9] was “reduces p-MAPK; also recorded: decreased p-MAPK” and the “MARK pathway transactivation induced by COMPOUND A” value ([1]; metformin together with COMPOUND A) was “counteracts”. The “Mean Tumor Vol. Change” value [2, 10] was 221 mm^3, the Regression [2, 10] was “None” and the “activity in the 20-day tumor growth inhibition assay” value ([2]; metformin monotherapy at 192.3 mg/kg) was “did not appear active”. The T/C ([2]; mouse, in vivo) was 69% (ns), the Dead/Total ([3]; female, nu/nu (nude), mouse, in vivo) was 1/9 and the “cell proliferation / growth inhibition” value [4] was “dose-dependent growth inhibition”. For the same molecule, the “cell proliferation / growth inhibition” value ([4]; listed as metformin) was “inhbitor of HER2 negative breast cancer cell proliferation”.

With `CC(=O)O[C@H]1C(=O)[C@@]2(C)[C@H]([C@H](OC(=O)c3ccccc3)[C@]3(O)C[C@H](OC(=O)[C@H](O)[C@@H](NC(=O)c4ccccc4)c4ccccc4)C(C)=C1C3(C)C)[C@]1(OC(C)=O)CO[C@@H]1C[C@@H]2O` [Paclitaxel, reference compound] the “Mean Tumor Vol. Change” value [2, 11] was 9 mm^3, the Regression [2, 11] was “None” and the T/C [2, 11] was 3%. For the same molecule, the Dead/Total ([3]; Paclitaxel 30 mg/kg i.v., 1x on alternate days for 5 doses) was 0/8.
